# What was measured:
# [1] = tested on: Sprague Dawley rats; assay: Porsolt forced swim test; format: in vivo, rat; conditions: 1-100 μg/kg PO, 1 h post-dosing
# Method: A non-clinical in vivo pharmacology study (Porsolt assay) was performed to measure antidepressant-like effects. A negative control (0.5% sodium carboxymethyl cellulose in 0.9% sterile saline vehicle) and a positive control (Compound C) were used to compare against Compound BB. The study allowed for the construction of a dose-response curve of the effects of each compound on the Porsolt forced swim test as assessed by the rats' response (reduced floating time) during a 5-minute swimming test.
# Male 2-3 month old Sprague Dawley rats were used (Harlan, Indianapolis, Ind.). Rats were housed in Lucite cages with aspen wood chip bedding, maintained on a 12:12 light:dark cycle (lights on at 5 AM), and given ad libitum access to Purina lab chow (USA) and tap water throughout the study.
# The Porsolt forced swim test adapted for use in rats was performed as described by Burgdorf et al., (The long-lasting antidepressant effects of rapastinel (GLYX-13) are associated with a metaplasticity process in the medial prefrontal cortex and hippocampus. Neuroscience 308:202-211, 2015). Animals were placed in a 46 cm tall×20 cm in diameter clear glass tube filled to 30 cm with tap water (23±1° C.) for 15 min on the first day (habituation) and 5 min on the subsequent test day. Animals were tested 1 h post-dosing with the compound BB, positive control (Compound C, 10 μg/kg), or vehicle (0.5% sodium carboxymethyl cellulose (Na-CMC) in 0.9% sterile saline). Water was changed after every other animal. Animals were videotaped, and floating time as defined as the minimal amount of effort required to keep the animals head above water was scored offline by a blinded experimenter with high inter-rater reliability (Pearson's r >0.9).
# The maximally efficacious dose was defined as the lowest dose that was statistically different from vehicle but statistically equivalent (per Fisher's PLSD) to the higher doses. […]
# Compound AA was assessed in a second set of animals at a single dose at 1 h post-administration and in a third set of animals at 24 h post-administration (FIG. 9B). […]
# [2] = biological target: NR2C (Homo sapiens, UniProt Q14957); assay: Potentiation of [3H]MK-801 binding, wild-type NMDAR2C; design: species or system rat
# Chain of NR2C (Q14957 20-1233, species assumed, other chains not shown): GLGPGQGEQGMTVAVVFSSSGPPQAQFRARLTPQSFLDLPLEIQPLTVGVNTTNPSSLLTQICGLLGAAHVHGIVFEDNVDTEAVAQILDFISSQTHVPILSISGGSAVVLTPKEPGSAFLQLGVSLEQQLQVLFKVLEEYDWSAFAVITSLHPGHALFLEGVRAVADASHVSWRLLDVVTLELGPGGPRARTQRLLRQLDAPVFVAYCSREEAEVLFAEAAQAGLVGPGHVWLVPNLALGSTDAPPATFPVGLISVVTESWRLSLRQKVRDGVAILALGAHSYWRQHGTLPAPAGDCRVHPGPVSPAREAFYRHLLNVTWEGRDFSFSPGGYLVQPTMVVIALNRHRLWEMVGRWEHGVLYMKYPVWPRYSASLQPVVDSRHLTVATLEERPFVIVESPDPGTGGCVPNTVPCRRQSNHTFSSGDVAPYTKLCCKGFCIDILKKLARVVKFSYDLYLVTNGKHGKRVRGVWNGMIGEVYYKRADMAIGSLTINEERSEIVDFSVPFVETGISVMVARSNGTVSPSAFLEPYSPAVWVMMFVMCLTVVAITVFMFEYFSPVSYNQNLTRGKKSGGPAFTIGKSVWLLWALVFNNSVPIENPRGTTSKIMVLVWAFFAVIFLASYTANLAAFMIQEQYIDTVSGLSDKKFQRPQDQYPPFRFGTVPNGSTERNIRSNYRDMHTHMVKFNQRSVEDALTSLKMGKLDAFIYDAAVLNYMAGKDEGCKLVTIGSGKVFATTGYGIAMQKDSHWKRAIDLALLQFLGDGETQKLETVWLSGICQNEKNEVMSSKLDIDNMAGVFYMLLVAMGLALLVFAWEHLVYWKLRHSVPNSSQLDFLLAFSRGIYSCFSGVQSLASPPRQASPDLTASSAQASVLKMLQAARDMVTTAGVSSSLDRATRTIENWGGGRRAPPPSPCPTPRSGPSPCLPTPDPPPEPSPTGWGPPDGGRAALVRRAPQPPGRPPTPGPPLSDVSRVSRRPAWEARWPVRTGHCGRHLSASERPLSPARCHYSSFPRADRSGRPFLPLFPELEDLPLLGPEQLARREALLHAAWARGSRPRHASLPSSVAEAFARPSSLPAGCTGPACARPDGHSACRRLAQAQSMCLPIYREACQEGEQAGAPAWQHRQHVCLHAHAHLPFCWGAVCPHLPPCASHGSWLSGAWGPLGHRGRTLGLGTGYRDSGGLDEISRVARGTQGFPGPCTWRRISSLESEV
# Method: Assays were conducted as described by Moskal et al., “GLYX-13: a monoclonal antibody-derived peptide that acts as an N-methyl-D-aspartate receptor modulator,” Neuropharmacology, 49, 1077-87, 2005. The potentiation of [^3H]MK-801 binding (5 nM; 22.5 Ci/mmol) to well washed rat cortical membranes (200 μg) was measured under non-equilibrium conditions (15 min @ 25° C.) in the presence of increasing concentrations of Compound AA or Compound BB.
# FIG. 2A depicts the potentiation of [^3H]MK-801 binding for wild-type NMDAR2 subtypes in the presence of Compound AA. FIG. 2B depicts the potentiation of [^3H]MK-801 binding for wild-type NMDAR2 subtypes in the presence of Compound BB. The following table depicts the results (P means potency and A means activity): […]
# [3] = tested on: rat Schaffer collateral-evoked NMDA fEPSPs recorded in CA1 pyramidal neurons; assay: Long-term potentiation in hippocampal slices; format: cell-based; conditions: bath application 100 nm, 500 nm, 2 μM
# Method: Assays were conducted as described in Zhang et al. (Zhang, X. L., Sullivan, J. A., Moskal., J. R., Stanton, P. K., 2008. A NMDA receptor glycine site partial agonist, GLYX-13, simultaneously enhances LTP and reduces LTD at Schaffer collateral-CA1 synapses in hippocampus. Neuropharmacology, 55, 1238-50). See also Burgdorf, J, Zhang X L, Nicholson K L, Balster R L, Leander J D, Stanton P K, Gross A L, Kroes R A, Moskal J R (2013), GLYX-13, a NMDA receptor glycine-site functional partial agonist, induces antidepressant-like effects without ketamine-like side effects, Neuropsychopharmacology: official publication of the American College of Neuropsychopharmacology 38:729-742. […] A bipolar tungsten ystimulating electrode (FHC Co.) was placed on Schaffer collateral-commissural fibers in CA3 stratum radiatum, and constant current stimulus intensity adjusted to evoke approximately half-maximal fEPSPs once each 30 s ([…]; 100 μs duration). fEPSP slope was measured before and after induction of LTP by linear interpolation from 20 to 80% of maximum negative deflection, and slopes confirmed to be stable to within ±10% for at least 15 min before commencing an experiment. […] The signals were recorded using a Multiclamp 700B amplifier and digitized with a Digidata 1322 (Axon Instruments, USA).
structure (smiles),measurement,setting,value
"C[C@@H](O)[C@@H](C(N)=O)N1C[C@@]2(CCCN2S(C)(=O)=O)C1=O [Compound BB, (2S,3R)-3-hydroxy-2-((S)-5-(methylsulfonyl)-1-oxo-2,5-diazaspiro[3,4]octan-2-yl)butanamide]",floating time in the Porsolt test,[1],produces an antidepressant-like effect as measured by decreased floating time
same,NR2C A (%) (activity),[2]; potentiation of [3H]MK-801 binding,0%
same,NMDAR2C BINDING PROFILE % 1 mM Glycine,[2]; relative to 1 mM glycine,0%
same,binding to NR2C (in words),[2]; statement in description,substantially no binding
same,NMDAR2C BINDING PROFILE Conclusion,[2]; wild-type NMDAR2C,WT2C no
same,long-term potentiation after high frequency stimulation,[3],increased long-term potentiation

# From patent US10195179B2, “Spiro-lactam NMDA receptor modulators and uses thereof” (Aptinyx Inc., priority 2016, dated 2019)
